Experimental data published in patent US20210330611A1, “THERAPY FOR NEUROLOGICAL DISEASES/DISORDERS” (priority 2020, published 2021).
Where a name gives a salt, the structure may show the parent alone. Read-outs that look alike come from different tables or passages of the source.

Key:
[1] = system: fibrin- and LPS-induced microglia activation; assay: cells; assay type: cell-based, rat; conditions: classification by fibrin and LPS inhibition in HTS
[2] = system: LPS-induced microglia activation; assay: Image-based assay of LPS-induced microglia activation (HTS and dose response); assay type: cell-based, rat; conditions: for inhibition at 10 µM: Rattus norvegicus, Microglia, 48 h, read-out: LPS % inhibition
[3] = system: fibrin-induced microglia activation; assay: Image-based assay of fibrin-induced microglia activation (HTS and dose response); assay type: cell-based, rat; conditions: primary microglia HTS, fibrin stimulation, cell size >800 μm2 as marker of activation; for inhibition at 10 µM: Rattus norvegicus, Microglia, read-out: Fibrin % inhibition
primary rat microglia [4] = system: primary rat microglia
primary rat microglia [5] = assay: Cell toxicity (dead cells, size <150 μm2) in coated fibrin (cFib) assay; conditions: primary microglia HTS, fibrin stimulation, cell size <150 μm2 as marker of toxicity;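 also: share of dead cells sized under 150 µm2 at 10 µM in fibrin-stimulated microglia HTS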

Row | Structure (SMILES) | Quadrant (FIG. 5b) [1] | inhibition at 10 µM [2] [%] | inhibition at 10 µM [3] [%] | LPS % cell toxicity (primary rat microglia [4]; rat) [%] | Fibrin % cell toxicity (primary rat microglia [5]) [%] | LPS % inhibition [2] [%] | Fibrin % inhibition [3] [%] | LPS % cell toxicity (primary rat microglia [4]) [%]
1 | CO[C@H]1/C=C/O[C@@]2(C)Oc3c(C)c(O)c4c(O)c(c(/C=N/N5CCN(C6CCCC6)CC5)c(O)c4c3C2=O)NC(=O)/C(C)=C\C=C\[C@H](C)[C@H](O)[C@@H](C)[C@@H](O)[C@@H](C)[C@H](OC(C)=O)[C@@H]1C [Rifapentine] | Q4 | -7 | -23 | 0 | 1 | – | – | –
2 | CO[C@H]1/C=C/O[C@@]2(C)Oc3c(C)c(O)c4c(O)c(c5c(nc6cc(C)ccn65)c4c3C2=O)NC(=O)/C(C)=C\C=C\[C@H](C)[C@H](O)[C@@H](C)[C@@H](O)[C@@H](C)[C@H](OC(C)=O)[C@@H]1C [Rifaximin] | Q4 | 22 | 6 | 2 | 0 | – | – | –
3 | O=P(O)(O)C(O)(Cc1cccnc1)P(=O)(O)O [Risedronate] | Q4 | 15 | 47 | 0 | 1 | – | – | –
4 | CN(C)CCc1c[nH]c2ccc(Cn3cncn3)cc12 [Rizatriptan] | Q4 | 10 | -9 | 0 | 1 | – | – | –
5 | C=CC[N+]1([C@H]2C[C@H]3[C@@H]4CC[C@H]5C[C@H](O)[C@@H](N6CCOCC6)C[C@]5(C)[C@H]4CC[C@]3(C)[C@H]2OC(C)=O)CCCC1 [Rocuronium] | Q4 | 5 | -22 | 0 | 1 | – | – | –
6 | CS(=O)(=O)c1ccc(C2=C(c3ccccc3)C(=O)OC2)cc1 [Rofecoxib] | Q4 | 14 | 15 | 0 | 0 | – | – | –
7 | COc1ccc(C2CNC(=O)C2)cc1OC1CCCC1 (centres unmarked) [Rolipram] | Q4 | 11 | 11 | 0 | 0 | – | – | –
8 | CN(C)[C@@H]1C(O)=C(C(=O)NCN2CCCC2)C(=O)[C@@]2(O)C(O)=C3C(=O)c4c(O)cccc4[C@@](C)(O)[C@H]3C[C@@H]12 [Rolitetracycline] | Q4 | 9 | 4 | 0 | 1 | – | – | –
9 | Cn1c([N+](=O)[O-])cnc1COC(N)=O [Ronidazole] | Q4 | 20 | 31 | 0 | 1 | – | – | –
10 | O=[N+]([O-])c1cc([As](=O)(O)O)ccc1O [Roxarsone] | Q4 | – | – | 1 | 1 | 17 | −18 | –
11 | CC(=O)OCC(=O)NCCCOc1cccc(CN2CCCCC2)c1 [Roxatidine acetate] | Q4 | 6 | 22 | 0 | 1 | – | – | –
12 | CC[C@H]1OC(=O)[C@H](C)[C@@H](O[C@H]2C[C@@](C)(OC)[C@@H](O)[C@H](C)O2)[C@H](C)[C@@H](O[C@@H]2O[C@H](C)C[C@H](N(C)C)[C@H]2O)[C@](C)(O)C[C@@H](C)/C(=N\OCOCCOC)[C@H](C)[C@@H](O)[C@]1(C)O [Roxithromycin] | Q4 | 17 | -4 | 1 | 0 | – | – | –
13 | CN1CCN(c2c(F)cc3c(=O)c(C(=O)O)cn4c3c2SCC4)CC1 [Rufloxacin Hydrochloride] | Q4 | 21 | -3 | 0 | 1 | – | – | –
14 | C[C@@H]1O[C@@H](OC[C@H]2O[C@@H](Oc3c(-c4ccc(O)c(O)c4)oc4cc(O)cc(O)c4c3=O)[C@H](O)[C@@H](O)[C@@H]2O)[C@H](O)[C@H](O)[C@H]1O [Rutin] | Q4 | 18 | 1 | 0 | 1 | – | – | –
15 | C[C@@](Cc1ccc(O)c(O)c1)(NN)C(=O)O [S-(−)-carbidopa, Carbidopa] | Q4 | – | – | – | 0 | 16 | −91 | 0
16 | OCc1ccccc1O [Salicyl Alcohol] | Q4 | 19 | -5 | 0 | 1 | – | – | –
